Data from US20220146526A1, “METHOD FOR EVALUATING SAMPLE, ANALYSIS METHOD, METHOD FOR DETECTING DEGRADED SAMPLE, MARKER FOR DETECTING DEGRADED BLOOD PLASMA SAMPLE, AND MARKER FOR DETECTING DEGRADED SERUM SAMPLE” (SHIMADZU CORPORATION, priority 2019, published 2022).

Experiments:
Type in all cases: physicochemical, human
[1] = LC/MS of blood plasma sample: time from blood collection to centrifugation (Table D); settings: for Increase or decrease: detection intensity
How it was run: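 Healthy-subject blood (5 mL, EDTA) cooled and held at 4 °C before centrifugation (4 °C, 3000 rpm, 15 min), with plasma then frozen. LC/MS on Discovery HS F5-3 column at 40 °C, 0.1% formic acid water/acetonitrile, 0.25 mL/min, electrospray, MRM; intensities relative to 15 min collection-to-centrifugation set as 1.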

[2] = LC/MS of blood plasma sample: number of times of freezing and thawing (Table F); settings: for Rate of increase or decrease: detection intensity relative to 1 at 2 times; for Increase or decrease: detection intensity
Description: (§1) At room temperature, 5 mL of blood from a healthy subject was taken into a blood-collecting vessel containing EDTA, and the blood-collecting vessel was inverted for mixing, then cooled, and allowed to stand at 4° C. Here, in order to investigate how the detection intensity of molecules contained in the sample was affected in a case where the time to cooling was set to 5 minutes or more as compared to that in a case where the time to cooling was set to 1 minute or less, preparations were performed under both the former condition and the latter condition. After standing, the blood sample was subjected to centrifugation under a condition of 4° C., 3000 rpm, and 15 minutes. […] After centrifugation, the blood-collecting vessel was left to stand at room temperature for 30 minutes, and the blood plasma was isolated during this 30 minutes. The obtained blood plasma sample was frozen and stored. Here, in order to investigate how the detection intensity of molecules contained in the sample was affected in cases where freezing and thawing was performed 4 times, 6 times, and 10 times after freezing as compared to that in a case where freezing and thawing was performed 2 times after freezing, freezing and thawing was performed under the respective conditions of 2, 4, 6, and 10 times.
(§2) Frozen blood plasma samples and serum samples were subjected to GC/MS or LC/MS. In GC/MS, the blood plasma samples and serum samples were subjected to methoxymation and trimethylsilylation and then introduced to GC-MS.
(§3) Analysis column: Discovery HS F5-3 (inner diameter of 2.1 mm, length of 150 mm, film thickness of 3 μm) (Sigma-Aldrich)
(§4) Column temperature: 40° C.
(§5) (A) 0.1% formic acid (dissolved in water)
(§6) (B) 0.1% formic acid (dissolved in acetonitrile)
(§7) Flow velocity: 0.25 mL/min
(§8) Ionization method: electrospray
(§9) Temperature: • Desolvation Line (DL) temperature: 250° C. • Heat block temperature: 400° C. • Interface temperature: 300° C.
(§10) Gas flow rate: • Nebulizer gas flow rate: 3.0 L/min • Drying gas flow rate: 10.0 L/min • Heating gas flow rate: 10.0 L/min
(§11) Mode: multiple reaction monitoring (MRM)
The rate of increase or decrease in Table F is the value of detection intensity relative to 1 that is the detection intensity in a case where the number of times of freezing and thawing is set to 2 times.

[3] = LC/MS of serum sample: time from blood collection to centrifugation (Table J); settings: for Rate of increase or decrease: detection intensity relative to 1 at 15 minutes; for Increase or decrease / Time when compound is affected: serum sample, LC/MS; for Increase or decrease: detection intensity vs 15 minutes from blood collection to centrifugation; for Time when compound is affected: time from blood collection to centrifugation, detection intensity changed by 30% or more vs 15 minutes
Description: After standing, the blood sample was subjected to centrifugation under a condition of room temperature, 3500 rpm, and 5 minutes. […] After centrifugation, the blood-collecting vessel was left to stand at room temperature, and the serum was isolated during this time. Here, in order to investigate how the detection intensity of molecules contained in the sample was affected in cases where the time during which the blood-collecting vessel was left at room temperature was set to 1 hour and 6 hours as compared to that in a case where the time was set to 30 minutes, preparations were performed under the respective conditions of 30 minutes, 1 hour, and 6 hours. The obtained serum sample was frozen and stored. Here, in order to investigate how the detection intensity of molecules contained in the sample was affected in cases where freezing and thawing was performed 4 times, 6 times, and 10 times after freezing as compared to that in a case where freezing and thawing was performed 2 times after freezing, freezing and thawing was performed under the respective conditions of 2, 4, 6, and 10 times.
as §2, §3, §4, §5, §6, §7, §8, §9, §10, §11
The rate of increase or decrease in Table J is the value of detection intensity relative to 1 that is the detection intensity in a case where the time from blood collection to centrifugation is set to 15 minutes.

[4] = LC/MS of serum sample: number of times of freezing and thawing (Table M); parameters: key to Rate of increase or decrease: detection intensity relative to 1 at 2 freeze-thaw cycles; settings: for Rate of increase or decrease: 6 times of freezing and thawing; for Number of times when compound is affected / Increase or decrease: serum sample, LC/MS; for Number of times when compound is affected: detection intensity changed by 30% or more vs 2 times of freezing and thawing; for Increase or decrease: detection intensity vs 2 times of freezing and thawing
How it was run: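 Serum was isolated at room temperature after centrifugation at room temperature, 3500 rpm, 5 minutes, then frozen and freeze-thawed 2, 4, 6 or 10 times. LC/MS used a Discovery HS F5-3 column at 40° C with formic acid water/acetonitrile, electrospray MRM. Intensity is relative to 2 freeze-thaw cycles.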

[5] = GC/MS of blood plasma sample: time from blood collection to cooling of blood (Table B); parameters: key to Rate of increase or decrease / Rate of increase or decrease (first value, increase): detection intensity relative to 1 at cooling time ≤1 min; settings: for Increase or decrease: detection intensity, blood collection to cooling 5 minutes or more vs 1 minute or less
Description: as §1, §2
GC/MS was conducted using GCMS·TQ8040 (Shimadzu Corporation) that was a GC·MS equipped with AOC·20i (Shimadzu Corporation) as an autosampler.
Column: BPX5 (inner diameter of 0.25 mm, length of 30 m, and film thickness of 0.25 μm) (SGE)
Column temperature: maintained at 60° C. for 2 minutes, then raised at 15° C./min, and maintained at 330° C. for 3 minutes.
Inlet temperature: 250° C.
Carrier gas control mode: constant linear velocity of 39.0 cm/sec
Sample introduction method: split (split ratio of 30:1) Injection volume: 1 μL
Ionization method: electron ionization
Ionization current: 60 μA
Interface temperature: 280° C.
Ion source temperature: 200° C.
as §11
Table B presents compounds of which the detection intensity increased or decreased by 30% or more in a case where the time from blood collection to cooling of blood, when a blood plasma sample was analyzed by GC/MS, was set to 5 minutes or more as compared to that in a case where the time was set to 1 minute or less. The rate of increase or decrease in Table B is the value of detection intensity relative to 1 that is the detection intensity in a case where the time from blood collection to cooling is set to 1 minute or less.

[6] = GC/MS of serum sample: time from blood collection to centrifugation (Table G); settings: blood collection to centrifugation; for Rate of increase or decrease: detection intensity relative to 1 at 15 minutes, after 4 hours; for Increase or decrease: detection intensity, after 4 hours vs 15 minutes
How it was run: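 Blood was held for varying times before centrifugation (room temperature, 3500 rpm, 5 min); serum was frozen, then methoxymated and trimethylsilylated for GC/MS with electron ionization in MRM mode. Values are detection intensities relative to the 15-minute collection-to-centrifugation condition, set as 1.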

[7] = GC/MS of serum sample: number of times of freezing and thawing (Table I); parameters: key to Rate of increase or decrease / Rate of increase or decrease (first value, increase): detection intensity relative to 2 freeze-thaw cycles = 1; settings: for Number of times when compound is affected: detection intensity changed by 30% or more vs 2 times of freezing and thawing
How it was run: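 Serum was isolated after centrifugation at room temperature (3500 rpm, 5 min), frozen, and put through 2, 4, 6 or 10 freeze–thaw cycles. Samples were methoxymated and trimethylsilylated, then run by electron-ionization GC/MS in MRM mode on a BPX5 column (60 to 330 °C). Detection intensity is given relative to the 2-cycle sample, set as 1.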

[8] = GC/MS of serum sample: time from centrifugation to isolation (Table H); parameters: key to Rate of increase or decrease / Rate of increase or decrease (first value, increase): detection intensity relative to 1 at 30 min centrifugation-to-isolation
How it was run: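 Blood was centrifuged at room temperature, 3500 rpm, 5 min, and the vessel left at room temperature for 30 min, 1 h or 6 h before serum isolation. Serum was methoxymated, trimethylsilylated and analysed by GC/MS with electron ionization in MRM mode; intensities expressed relative to the 30-min condition (=1).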

[9] = serum sample, GC/MS, detection intensity vs 2 times of freezing and thawing

Compound: CC[C@H](C)[C@H](N)C(=O)O [Isoleucine]
- Increase or decrease ([1]; blood collection to centrifugation, after 12 hours vs 15 minutes): Different from individual
- Rate of increase or decrease (second value, decrease) ([1]; different from individual to individual, individuals with decrease, relative to 1 at 15 minutes, collection to centrifugation, after 12 hours): 0.65
- Rate of increase or decrease (first value, increase) ([1]; different from individual to individual, individuals with increase, relative to 1 at 15 minutes, collection to centrifugation, after 12 hours): 1.31
- Rate of increase or decrease ([2]; freezing and thawing 10 times): 1.44
- Increase or decrease ([2]; freezing and thawing 10 times vs 2 times): Increase
- Rate of increase or decrease ([3]; after 12 hours from blood collection to centrifugation): 1.34
- Increase or decrease [3]: Increase
- Time when compound is affected [3]: After 12 hours
- Rate of increase or decrease ([4]; relative to 1 at 2 times, different from individual to individual, first value (increase)): 1.33
- Rate of increase or decrease ([4]; relative to 1 at 2 times, different from individual to individual, second value (decrease)): 0.66
- Number of times when compound is affected [4]: 6 times
- Increase or decrease [4]: Different from individual

Compound: O=C(O)CO [Glycolic acid]
- Rate of increase or decrease ([5]; detection intensity relative to 1 at 1 minute or less, blood collection to cooling 5 minutes): 0.61
- Increase or decrease [5]: Decrease
- Rate of increase or decrease [6]: 1.40
- Increase or decrease [6]: Increase
- Rate of increase or decrease ([7]; 10 times of freezing and thawing, detection intensity relative to 1 at 2 times): 0.66
- Number of times when compound is affected ([7]; serum sample, GC/MS): 10 times
- Increase or decrease [7, 9]: Decrease

Compound: N=C(N)NCCC[C@H](N)C(=O)O [Arginine]
- Rate of increase or decrease ([1]; detection intensity relative to 1 at 15 minutes, blood collection to centrifugation, after 6 hours): 0.69
- Increase or decrease ([1]; blood collection to centrifugation, after 6 hours vs 15 minutes): Decrease
- Rate of increase or decrease ([2]; freezing and thawing 4 times): 1.34
- Increase or decrease ([2]; freezing and thawing 4 times vs 2 times): Increase
- Rate of increase or decrease ([7]; detection intensity relative to 1 at 2 times, serum, GC/MS, freezing and thawing 10 times): 1.51
- Increase or decrease ([7]; detection intensity, serum, GC/MS, freezing and thawing 10 times vs 2 times): Increase
- Rate of increase or decrease ([3]; after 6 hours from blood collection to centrifugation): 0.54
- Increase or decrease [3]: Decrease
- Time when compound is affected [3]: After 6 hours
- Rate of increase or decrease ([4]; detection intensity relative to 1 at 2 times): 0.64
- Number of times when compound is affected [4]: 6 times
- Increase or decrease [4]: Decrease

Compound: Cn1c(=O)[nH]c2ncn(C)c2c1=O [Paraxanthine]
- Increase or decrease [5]: Different from individual
- Rate of increase or decrease (second value, decrease) ([5]; different from individual to individual, individuals with decrease, relative to 1 at 1 minute or less, collection to cooling 5 minutes): 0.67
- Rate of increase or decrease (first value, increase) ([5]; different from individual to individual, individuals with increase, relative to 1 at 1 minute or less, collection to cooling 5 minutes): 2.33
- Rate of increase or decrease [6]: 2.98
- Increase or decrease [6]: Increase
- Increase or decrease ([8]; detection intensity, after 6 hours vs 30 minutes): Different from individual
- Rate of increase or decrease (second value, decrease) ([8]; different from individual to individual, individuals with decrease, relative to 1 at 30 minutes, after 6 hours): 0.61
- Rate of increase or decrease (first value, increase) ([8]; different from individual to individual, individuals with increase, relative to 1 at 30 minutes, after 6 hours): 2.04
- Rate of increase or decrease ([7]; 10 times of freezing and thawing, relative to 1 at 2 times, different from individual to individual, first value (increase)): 2.65
- Rate of increase or decrease ([7]; 10 times of freezing and thawing, relative to 1 at 2 times, different from individual to individual, second value (decrease)): 0.63
- Number of times when compound is affected ([7]; serum sample, GC/MS): 10 times
- Increase or decrease [7, 9]: Different from individual
